Measured values published in PubChem BioAssay (NCI).
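In this assay, cells in 96-well plates receive the compound at five concentrations for 48 hours. Endpoints are linearly interpolated between the surrounding concentrations. GI50 = concentration required for 50% inhibition of growth. Definition used: TGI = concentration required for complete inhibition of growth.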

Assays:
Assay in all cases: NCI anticancer screen, dose series, 48 h
COLO 205 colon = system: COLO 205 colon
HOP-92 NSCLC = system: HOP-92 NSCLC
K-562 leukemia = system: K-562 leukemia
MCF7 breast = system: MCF7 breast
MOLT-4 leukemia = system: MOLT-4 leukemia
NCI-H460 lung = system: NCI-H460 lung
RPMI-8226 leukemia = system: RPMI-8226 leukemia
SF-268 CNS = system: SF-268 CNS
SN12C renal = system: SN12C renal
TK-10 renal = system: TK-10 renal

Compound	TGI (COLO 205 colon) [µM]	TGI (HOP-92 NSCLC) [µM]	TGI (K-562 leukemia) [µM]	TGI (MCF7 breast) [µM]	TGI (MOLT-4 leukemia) [µM]	TGI (NCI-H460 lung) [µM]	TGI (RPMI-8226 leukemia) [µM]	TGI (SF-268 CNS) [µM]	TGI (SN12C renal) [µM]	TGI (TK-10 renal) [µM]	GI50 (COLO 205 colon) [µM]	GI50 (HOP-92 NSCLC) [µM]	GI50 (K-562 leukemia) [µM]	GI50 (MCF7 breast) [µM]	GI50 (MOLT-4 leukemia) [µM]	GI50 (NCI-H460 lung) [µM]	GI50 (SF-268 CNS) [µM]	GI50 (SN12C renal) [µM]	GI50 (TK-10 renal) [µM]	GI50 (RPMI-8226 leukemia) [µM]
O=C(Nc1ccn(C2CCC(COC(c3ccccc3)(c3ccccc3)c3ccccc3)O2)c(=O)n1)c1ccccc1 (stereo not drawn)	4.2	4.74	7.97	10.2	5.16	10.4	5.21	17.4	4.33	–	–	–	–	–	–	–	–	–	–	–
CC#CC#C/C=C1/C=CC2(CCCCO2)O1 (stereo not drawn)	> 100	> 100	> 100	> 100	> 100	> 100	–	> 100	> 100	> 100	–	–	–	–	–	–	–	–	–	–
COC1C[C@H](O[C@@H]2C[C@H](O[C@@H]3C[C@H](O[C@@H]4C(=O)c5c(cc6cc(O[C@H]7C[C@@H](O[C@H]8C[C@@H](O)[C@H](O)C(C)O8)[C@H](O)C(C)O7)c(C)c(O)c6c5O)C[C@H]4C(OC)C(=O)[C@@H](O)[C@@H](C)O)OC(C)[C@H]3O)OC(C)[C@@H]2O)OC(C)[C@@H]1O (stereo partly drawn)	0.147	0.25	> 32.5	> 32.5	> 32.5	> 32.5	–	> 32.5	> 32.5	6.4	0.0571	0.0551	0.119	0.0493	0.111	0.0802	0.0864	0.113	0.173	–
O=C(O)[C@@H](Cc1ccccc1)NS(=O)(=O)c1ccc(-c2ccccc2)cc1	> 100	> 100	> 100	> 100	> 100	> 100	–	> 100	> 100	> 100	> 100	24.9	> 100	> 100	> 100	> 100	> 100	> 100	> 100	–
O=C(Nc1cccc(Cl)c1)Nc1cc(C(F)(F)F)ccc1Cl	3.68	–	18.2	18.1	11.4	6.84	7.13	11.7	11.5	39.5	2.09	–	3.36	3.13	3.12	2.54	3.55	3.01	4.29	2.33
Clc1ccc(Nc2nnc(COc3ccccc3)c3ccccc23)cc1	4.38	3.09	11.9	6.07	6.7	7.12	6.96	12.9	8.07	–	0.456	0.331	1.85	1.18	1.06	2.7	2.23	2.12	–	1.37
c1ccc2cc(Cn3c(-c4cccc5ccccc45)[n+](Cc4ccc5ccccc5c4)c4c5ccccc5c5ccccc5c43)ccc2c1	–	–	> 100	1.2	2.09	1.41	0.861	–	–	–	–	–	0.224	0.244	0.385	0.254	–	–	–	0.101
Fc1ccc(Nc2ccnc(N3CCN(c4ccnc5cc(Cl)ccc45)CC3)n2)cc1	–	–	6.62	8.26	8.37	4.54	6.22	40.3	> 100	–	–	–	2.18	2.36	2.76	1.74	3.67	2.57	–	2.19
CCN(CC(O)COc1ccc2c(c1)[n+]([O-])nc(N)[n+]2[O-])C(C)=O (stereo not drawn)	> 100	–	> 100	> 100	> 100	> 100	> 100	> 100	> 100	> 100	–	–	–	–	–	–	–	–	–	–
COc1cc(/C=C/[N+](=O)[O-])cc(OC)c1	3.63	20.5	9.09	3.61	6.33	10.5	4.61	14.9	15.9	–	1.79	4.78	1.75	1.39	2.25	3.51	3.62	3.38	–	1.85
O=C(Nc1c(Cl)cccc1Cl)Oc1cccc2cccnc12	> 100	–	> 100	> 100	28.4	20.2	47.7	> 100	> 100	> 100	35.2	–	4.52	2.99	3.96	3.46	5.46	4.61	8.98	3.64
COC(=O)C1(N2CCOCC2)CCC([C@@H](c2ccccc2)C(C)[N+](=O)[O-])C1 (stereo partly drawn)	> 100	–	> 100	54.5	> 100	> 100	42.9	> 100	> 100	> 100	–	–	–	–	–	–	–	–	–	–
